{"source": "patent US10806819B2", "about": "“Wound coverings comprising vitamin d and related methods” (Marshall University Research Corporation, priority 2015, dated 2020)", "key": {"cell growth": {"test_system": "cell growth", "conditions": "direct administration; cited from earlier work"}, "[1]": {"test_system": "cathelicidin (hCAP18) in HaCat cells", "assay": "immunofluorescence assay of cathelicidin (hCAP18) expression in HaCat cells", "format": "cell-based, human", "description": "(§1) This Example describes an immunofluorescence assay performed on cells treated with the PCL produced in Example 1. The cells were treated with different formulations as discussed above, the cells were rinsed with PBS twice and fixed with 4% paraformaldehyde for 30 min at 37° C. followed by incubation with TNBS (0.05% Triton-X100, 2% FBS in pH 7.2 PBS) for 30 minutes at room temperature prior to immunostaining. Goat anti-cathelicidin polyclonal antibody (1:200) was incubated to label intercellular cathelicidin at 4° C. overnight. Both the full length and cleaved C terminus of cathelicidin (hCAP18) were labeled. Mouse anti-goat IgG-FITC antibody (1:100) was incubated for 2 h after removal of primary antibody and washed with TNBS three times. Then, the secondary antibody was removed and washed by TNBS three times. Nuclei were counterstained with 10 μM DAPI in blue. Images were taken with a digital camera (Carl Zeiss). The exposure time for taking images for HaCat and U937 cells was fixed at 400 ms and 40 ms, respectively."}, "Pseudomonas aeruginosa": {"test_system": "Pseudomonas aeruginosa", "assay": "antibacterial activity of U937 lysis solutions (CFU count on agar plates)", "format": "cell-based", "conditions": "U937 treated with 5.0×10^−6 M for 5 days", "description": "FIG. 8 is a graph showing the quantification of Pseudomonas aeruginosa CFUs treated by U937 lysis solutions. U937 were incubated in the presence of 1 mg/ml pristine PCL fibers, 0.52% DMSO, 5.0×10^−7 M 25(OH)D, 5.0×10^−6 M 25(OH)D, and 1 mg/ml plasma treated and 25(OH)D loaded PCL fibers (containing 5.0×10^−7M 25(OH)D equivalent amount based on the calculations from release profiles in the first 3 days) for 1, 3 and 5 days. Bacteria were incubated with cell lysis solutions and CFUs were counted on agar plates. Each data point represents arithmetic mean±SD values from three samples. Statistical significance was evaluated by student's t-test (*p<0.05).\nThis Example describes the antibacterial activities in cells treated with the PCL fibers produced in Example 1. Briefly, bacteria were incubated with cell lysis solutions and CFUs were counted on agar plates."}, "[2]": {"test_system": "LL-37 production in U937 cells", "assay": "LL-37 ELISA of U937 cell lysate", "format": "cell-based, human", "conditions": "for amount of LL-37 produced from U937 cells: 5.0×10^−6 M", "description": "(§2) This Example describes the production of LL-37 in cells treated with the PCL fibers produced in Example 1. Single cell suspensions of both HaCat cells (human keratinocyte cell line) and U937 cells (leukemic monocyte lymphoma cell line) were seeded in 6-cm culture dishes. 5.0×10^5, 2.0×10^5 and 1.0×10^5 cells were seeded in the culture dishes for 1-day, 3-day, and 5-day treatments, respectively. Cells were treated with different formulations as described above and harvested at each time point. The subconfluent HaCat cells and U937 cell suspensions were washed with PBS twice. Subsequently, 300 μl of the M-PER mammalian protein extraction reagent with 0.1% protease inhibitor cocktail was added to […]. They were agitated for 20 min and lysate was collected and transferred to a 1.5-ml microcentrifuge tube. The samples were centrifuged at 14000×g for 40 min at 4° C. to pelletize the cell debris and the supernatant was transferred to a new tube for analysis. Total protein concentration was tested by MicroBCA kit before ELISA test. Concentrations of LL-37 in cell lysate were determined by LL-37 ELISA assay kit based on the manufacturer's instructions."}, "HaCat cells": {"test_system": "HaCat cells", "assay": "HaCat cell proliferation / cytotoxicity (cell counting)", "format": "cell-based, human", "conditions": "5.0×10^−6 M free drug", "description": "(§3) This Example describes cell proliferation of cells treated with the PCL fibers produced in Example 1. Human keratinocyte cell line (HaCat) and monocyte cell line (U937) were cultured in D-MEM with 10% FCS and RPMI-1640 media with 10% FCS respectively. The cultures were maintained at 37° C. under 95% air and 5% CO2 until reaching 80% confluence. The subconfluent HaCat cells were dissociated with a 0.05% trypsin-EDTA and re-suspended in a fresh complete media. U937 cells were precipitated by 300 g centrifugation and then re-suspended in a fresh complete media. The single HaCat cell suspensions were created by gently pipetting up and down HaCat cell aggregates and then placed in 6-cm culture dishes and incubated for 1 day. At the beginning of experiments, 5.0×10^5, 2.0×10^5 and 1.0×10^5 cells were seeded in the culture dishes for 1-day, 3-day, and 5-day treatments, respectively. The media was then replaced by D-MEM containing 0.52% DMSO, D-MEM containing 5.0×10^−7 M 25(OH)D, D-MEM containing 5.0×10^−6 M 25(OH)D, D-MEM containing 1 mg/ml pristine PCL fibers, and D-MEM containing 1 mg/ml 25(OH)D loaded PCL fibers and incubated for 1, 3, and 5 days. Of note, 5.0×10^−6 M 25(OH)D was chosen as a control due to cytotoxicity in OKF6-TERT2 cells. […]\n(§4) The HaCat cells and U937 cells were seeded in 24-well plates. […] The cell density was calculated based on the cell counting (FIGS. 5A-5B). […]"}, "[3]": {"test_system": "LL-37 production in HaCat cells", "assay": "LL-37 ELISA of HaCat cell lysate", "format": "cell-based, human", "conditions": "5.0×10^−7 M free drug", "description": "as §2"}, "U937 cells": {"test_system": "U937 cells", "assay": "U937 cell proliferation / cytotoxicity (cell counting)", "format": "cell-based, human", "conditions": "5.0×10^−6 M, 3 days and 5 days", "description": "as §3, §4"}, "[4]": {"test_system": "cathelicidin (hCAP18) in U937 cells", "assay": "immunofluorescence assay of cathelicidin (hCAP18) expression in U937 cells", "format": "cell-based, human", "description": "as §1"}, "OKF6-TERT2": {"test_system": "OKF6-TERT2", "conditions": "recent study; cited from earlier work"}, "Staphylococcus aureus": {"test_system": "Staphylococcus aureus", "conditions": "cited from earlier work"}}}
{"molecule": "C=C1/C(=C\\C=C2/CCC[C@]3(C)[C@@H]([C@H](C)CCCC(C)(C)O)CC[C@@H]23)C[C@@H](O)C[C@@H]1O", "note": "[1,25-hydroxyvitamin D3]", "values": [{"measurement": "concentration generating cytotoxicity and inhibition of cell growth", "setting": "cell growth", "value": "10^−7 M"}]}
{"molecule": "C=C1CC[C@H](O)C/C1=C/C=C1\\CCC[C@]2(C)[C@@H]([C@H](C)CCCC(C)(C)O)CC[C@@H]12", "note": "[25(OH)D, 25-hydroxyvitamin D3]", "values": [{"measurement": "hCAP 18 staining in HaCat cells", "setting": "[1]; 5.0×10^−6 M, 3 days", "value": "positive green fluorescent staining"}, {"measurement": "hCAP 18 expression in HaCat cells", "setting": "[1]; 5.0×10^−7 M", "value": "did not demonstrate hCAP 18 expression"}, {"measurement": "numbers of CFUs after incubation with U937 lysis solutions, versus other treatment groups", "setting": "Pseudomonas aeruginosa", "value": "significantly lower numbers of CFUs"}, {"measurement": "amount of LL-37 produced from U937 cells", "setting": "[2]; 3 days", "value": "increased"}, {"measurement": "amount of LL-37 produced from U937 cells", "setting": "[2]; 5 days", "value": "decreased sharply"}, {"measurement": "production of hCAP 18 and LL-37 in U937 cells", "setting": "[2]; 5.0×10^−7 M free drug", "value": "failed to induce production of significant amount"}, {"measurement": "cytotoxic effects on HaCat cells", "setting": "HaCat cells", "value": "marginal cytotoxic effects"}, {"measurement": "production of hCAP 18 and LL-37 in HaCat cells", "setting": "[3]", "value": "failed to induce production of significant amount"}, {"measurement": "proliferation rate of U937 cells", "setting": "U937 cells", "value": "reduced dramatically"}, {"measurement": "change of fluorescence intensity (hCAP 18) of U937 cells", "setting": "[4]; 5.0×10^−6 M, day 1 to day 3", "value": "increased"}, {"measurement": "change of fluorescence intensity (expression level of hCAP 18) of U937 cells", "setting": "[4]; 5.0×10^−6 M, day 3 to day 5", "value": "decreased"}, {"measurement": "hCAP 18 expression in U937 cells", "setting": "[4]; 5.0×10^−6 M, one day", "value": "exhibited expression of hCAP 18"}, {"measurement": "cathelicidin staining in U937 cells", "setting": "[4]; 5.0×10^−7 M, each time point", "value": "negative staining"}, {"measurement": "concentration toxic to OKF6-TERT2", "setting": "OKF6-TERT2", "value": "≥ 5", "unit": "µM"}, {"measurement": "concentration with little cytotoxicity in OKF6-TERT2", "setting": "OKF6-TERT2", "value": "lower than 5.0×10^−7 M"}]}
{"molecule": "LL-37: human cathelicidin, small cationic antimicrobial peptide derived from hCAP-18", "values": [{"measurement": "EC50 against Staphylococcus aureus", "setting": "Staphylococcus aureus", "value": 1.27, "unit": "µg/mL"}]}
